Here are results for 3 compounds from patent US11109538B2, “Method for producing galanthamine by a plant and electrical stimulation device” (Industrial Technology Research Institute, priority 2017, dated 2021).

For this assay, the system named is Lycoris aurea. Put plainly: Galanthamine release of plants subjected to chemical inducer treatment (LC-MS of lyophilized medium). The format is in vivo. Particulars: for Amounts of galanthamine released into the medium: MS medium with 25 μM chemical inducer, whole plants of Lycoris aurea. As to the method: MS mediums containing chemical inducers (chitin (CA), salicylic acid (SA) and methyl jasmonate (MJ)) (final concentration of the chemical inducer is 25 μM) were prepared. Since the chemical inducers could not be high-strength autoclaved, after the preparations of the chemical inducers at room temperature were completed, sterilization by filtration was performed on the chemical inducers in a laminar flow. In the blank group, the medium contained no agent.
Healthy plants of Lycoris aurea with leaves and root with a bulb diameter of 0.6-0.8 cm were selected and withered epidermis on the bulb thereof was removed. The plant mentioned above was placed in a test tube having MS medium containing a chemical inducer and cultured under an illumination of 3000-4000 Lux with illumination time 16 hours an dark time 8 hours at an ambient temperature of 25-27° C.
30 mL of medium was recovered on the Day 0, Day 3, Day 7, Day 14, Day 28 and Day 35 of the culturing. The recovered medium was lyophilized to form a powder. A liquid chromatography-mass spectrometry analysis was performed on the obtained powder to determine the content of galanthamine therein to investigate the effect of the chemical stimulation treatment mentioned above on the plant that produces galanthamine and releases it into the medium.

As for `CC/C=C\CC1C(=O)CCC1CC(=O)OC` (centres unmarked) [Methyl jasmonate, methyl jasmonate], the “Amounts of galanthamine released into the medium” value (“Amounts” for short) is, setting by setting: (Day 0 of culturing) 0 ppm; (Day 3 of culturing) 0.0153 ppm; (Day 7 of culturing) 0.0312 ppm; (Day 14 of culturing) 0.0066 ppm; (Day 28 of culturing) 2.72 ppm; (Day 35 of culturing) 0.9 ppm. Also, the “Effect on production and release of galanthamine for the plant (comparison of chemical inducers)” value (Table 2 and FIG. 7, 25 μM chemical inducer, Lycoris aurea) was “best effect”.

Regarding `O=C(O)c1ccccc1O` [Salicylic acid, salicylic acid], the “Amounts” value is, setting by setting: (Day 0 of culturing) 0 ppm; (Day 3 of culturing) 0.0183 ppm; (Day 7 of culturing) 0.0077 ppm; (Day 14 of culturing) 0.0142 ppm; (Day 28 of culturing) 0.36 ppm; (Day 35 of culturing) 1.01 ppm.

As to chitin, the “Amounts” value (Day 0 of culturing) is listed as 0 ppm, the “Amounts” value (Day 3 of culturing) is reported as 0.0015 ppm, the “Amounts” value (Day 7 of culturing) is listed as 0.0001 ppm and the “Amounts” value (Day 14 of culturing) was found to be 0.74 ppm.
